The source made the active and inactive calls. No cut-off for these calls is given here.
Key:
PANC-1 = experiment: Antiproliferative activity against human PANC-1 cells assessed as inhibition of cell proliferation measured after 24 hrs by MTT assay; assay type: functional, cell-based; settings: PANC-1, 24 h
[1] = Cytotoxicity against human GES1 cells assessed as reduction in cell viability measured after 24 hrs by MTT assay; assay type: cell-based
[2] = target: Heat shock protein HSP 90-alpha (Homo sapiens, UniProt P07900); experiment: Inhibition of recombinant human N terminal his-tagged HSP90 alpha (1 to 732 residues) expressed in Escherichia coli measured after 60 mins by Flourescence polarization assay
A549 = experiment: Antiproliferative activity against human A549 cells assessed as inhibition of cell proliferation measured after 24 hrs by MTT assay; assay type: functional, cell-based; settings: A549, 24 h
OVCAR-3 = experiment: Antiproliferative activity against human OVCAR-3 cells assessed as inhibition of cell proliferation measured after 24 hrs by MTT assay; assay type: functional, cell-based; settings: OVCAR-3, 24 h
HepG2 = experiment: Antiproliferative activity against human HepG2 cells assessed as inhibition of cell proliferation measured after 24 hrs by MTT assay; assay type: functional, cell-based; settings: HepG2, 24 h
LoVo = experiment: Antiproliferative activity against human LoVo cells assessed as inhibition of cell proliferation measured after 24 hrs by MTT assay; assay type: functional, cell-based
SGC-7901 = experiment: Antiproliferative activity against human SGC-7901 cells assessed as inhibition of cell proliferation measured after 24 hrs by MTT assay; assay type: functional, cell-based; settings: SGC-7901, 24 h
[3] = Cytotoxicity against human MRC5 cells assessed as reduction in cell viability measured after 24 hrs by MTT assay; assay type: cell-based
[4] = Cytotoxicity against human IOSE80 cells assessed as reduction in cell viability measured after 24 hrs by MTT assay; assay type: cell-based
[5] = Cytotoxicity against human L02 cells assessed as reduction in cell viability measured after 24 hrs by MTT assay; assay type: cell-based
[6] = Cytotoxicity against human NCM460 cells assessed as reduction in cell viability measured after 24 hrs by MTT assay; assay type: cell-based
[7] = Cytotoxicity against human HPDE6c7 cells assessed as reduction in cell viability measured after 24 hrs by MTT assay; assay type: functional
SW-620 [8] = experiment: Antitumour activity against human SW-620 cells xenografted in Balb/c mouse assessed as inhibition of tumour growth at 5 mg/kg, ip measured after 21 days; assay type: functional; settings: SW-620, ip, 504 h, time 21 day, read-out: TGI
SW-620 [9] = experiment: Antitumour activity against human SW-620 cells xenografted in Balb/c mouse assessed as decrease in Ki67 expression in tumour at 5 mg/kg, ip measured after 21 days immunochemical staining method; assay type: functional, organism-based; settings: time 21.0 day

| Structure (SMILES) | IC50 (PANC-1) [nM] | IC50 [2] [nM] | IC50 (A549) [nM] | IC50 (OVCAR-3) [nM] | IC50 (HepG2) [nM] | IC50 (LoVo) [nM] | IC50 (SGC-7901) [nM] | CC50 at 24 h [1] [nM] | CC50 at 24 h [3] [nM] | CC50 at 24 h [4] [nM] | CC50 at 24 h [5] [nM] | CC50 at 24 h [6] [nM] | CC50 [7] [nM] | inhibition in vivo at 5 mg/kg (SW-620 [8]) [%] | Activity (SW-620 [9]) |
| --- | --- | --- | --- | --- | --- | --- | --- | --- | --- | --- | --- | --- | --- | --- | --- |
| CC1(C)[C@H]2CC[C@]1(C)N(Cc1cn(-c3cccc(Cl)c3)nn1)C(=O)C2 | 260 | 7.38 | 60 | 50 | 60 | 70 | 510 | 69800 | 8840 | 13500 | 8510 | 8410 | 13000 |  |  |
| Cc1ccc(-n2cc(CN3C(=O)C[C@@H]4CC[C@@]3(C)C4(C)C)nn2)cc1 | 270 |  | 400 | 40 | 480 | 50 | 390 |  |  |  |  |  |  |  |  |
| CC1(C)[C@H]2CC[C@]1(C)N(Cc1cn(-c3ccc(C#N)cc3)nn1)C(=O)C2 | 250 | 21.8 | 140 | 380 | 50 | 90 | 500 | 11200 | 10800 | 5520 | 15700 | 8140 | > 100000 |  |  |
| CC1(C)[C@H]2CC[C@]1(C)N(Cc1cn(-c3ccc(F)cc3)nn1)C(=O)C2 | 110 |  | 230 | 200 | 90 | 40 | 500 |  |  |  |  |  |  |  |  |
| COc1cccc(-n2cc(CN3C(=O)C[C@@H]4CC[C@@]3(C)C4(C)C)nn2)c1 | 860 |  | 240 | 280 | 70 | 80 | 590 |  |  |  |  |  |  |  |  |
| CC1(C)[C@H]2CC[C@]1(C)N(Cc1cn(-c3ccc(O)cc3)nn1)C(=O)C2 | 100 |  | 140 | 410 | 80 | 410 | 330 |  |  |  |  |  |  |  |  |
| CC1(C)[C@H]2CC[C@]1(C)N(Cc1cn(-c3ccc(Cl)cc3)nn1)C(=O)C2 | 440 |  | 70 | 160 | 90 | 160 | 410 |  |  |  |  |  |  |  |  |
| CC1(C)[C@H]2CC[C@]1(C)N(Cc1cn(-c3cccc(F)c3)nn1)C(=O)C2 | 220 |  | 180 | 430 | 80 | 90 | 530 |  |  |  |  |  |  |  |  |
| CC1(C)[C@H]2CC[C@]1(C)N(Cc1cn(-c3ccccc3)nn1)C(=O)C2 | 160 | 34 | 70 | 50 | 90 | 50 | 240 | 6690 | 9730 | 23400 | 6230 | 19600 | > 100000 |  |  |
| Cc1cccc(-n2cc(CN3C(=O)C[C@@H]4CC[C@@]3(C)C4(C)C)nn2)c1 | 240 |  | 50 | 160 | 300 | 50 | 410 |  |  |  |  |  |  |  |  |
| CC1(C)[C@H]2CC[C@]1(C)N(Cc1cn(-c3ccccc3Cl)nn1)C(=O)C2 | 270 | 3.28 | 70 | 40 | 60 | 190 | 220 | 5370 | 4130 | 13400 | 20100 | 10800 | 3940 |  |  |
| CC1(C)[C@H]2CC[C@]1(C)N(Cc1cn(-c3ccc(Br)cc3)nn1)C(=O)C2 | 200 |  | 80 | 140 | 110 | 60 | 450 |  |  |  |  |  |  |  |  |

Further compounds by falling IC50 (PANC-1), results first:

| IC50 (PANC-1) [nM] | IC50 [2] [nM] | IC50 (A549) [nM] | IC50 (OVCAR-3) [nM] | IC50 (HepG2) [nM] | IC50 (LoVo) [nM] | IC50 (SGC-7901) [nM] | Structure (SMILES) | CC50 at 24 h [1] [nM] | CC50 at 24 h [3] [nM] | CC50 at 24 h [4] [nM] | CC50 at 24 h [5] [nM] | CC50 at 24 h [6] [nM] | CC50 [7] [nM] | inhibition in vivo at 5 mg/kg (SW-620 [8]) [%] | Activity (SW-620 [9]) |
| --- | --- | --- | --- | --- | --- | --- | --- | --- | --- | --- | --- | --- | --- | --- | --- |
| 3210 |  | > 10000 | 480 | 330 | 260 | > 10000 | C=CCNC1=C2C[C@@H](C)C[C@H](OC)[C@H](O)[C@@H](C)/C=C(\C)[C@H](OC(N)=O)[C@@H](OC)/C=C\C=C(/C)C(=O)NC(=CC1=O)C2=O [TANESPIMYCIN] | 7940 | 14200 | 21500 | 11600 | 14200 | 19500 | 29.6 | Active |
| 330 |  | 50 | 250 | 100 | 70 | 480 | COc1ccc(-n2cc(CN3C(=O)C[C@@H]4CC[C@@]3(C)C4(C)C)nn2)cc1 |  |  |  |  |  |  |  |  |
| 280 |  | 130 | 140 | 150 | 60 | 500 | CC1(C)[C@H]2CC[C@]1(C)N(Cc1cn(-c3ccccc3Br)nn1)C(=O)C2 |  |  |  |  |  |  |  |  |
| 280 |  | 180 | 370 | 70 | 410 | 270 | CC1(C)[C@H]2CC[C@]1(C)N(Cc1cn(-c3cccc(O)c3)nn1)C(=O)C2 |  |  |  |  |  |  |  |  |
| 260 |  | 440 | 230 | 40 | 320 | 250 | CC1(C)[C@H]2CC[C@]1(C)N(Cc1cn(-c3cccc(C#N)c3)nn1)C(=O)C2 |  |  |  |  |  |  |  |  |
| 250 |  | 90 | 150 | 150 | 80 | 350 | Cc1ccccc1-n1cc(CN2C(=O)C[C@@H]3CC[C@@]2(C)C3(C)C)nn1 |  |  |  |  |  |  |  |  |
| 240 | 7.99 | 100 | 110 | 180 | 140 | 260 | CC1(C)[C@H]2CC[C@]1(C)N(Cc1cn(-c3ccccc3C#N)nn1)C(=O)C2 | 9450 | 23300 | 13800 | 46100 | 37500 | 16000 |  |  |
| 230 |  | 230 | 90 | 120 | 540 | 410 | CC1(C)[C@H]2CC[C@]1(C)N(Cc1cn(-c3ccccc3O)nn1)C(=O)C2 |  |  |  |  |  |  |  |  |
| 150 | 2.68 | 240 | 300 | 60 | 40 | 300 | CC1(C)[C@H]2CC[C@]1(C)N(Cc1cn(-c3ccccc3F)nn1)C(=O)C2 | 5160 | 15100 | 19200 | 13300 | 5260 | 26200 |  |  |
| 120 |  | 350 | 140 | 110 | 70 | 280 | COc1ccccc1-n1cc(CN2C(=O)C[C@@H]3CC[C@@]2(C)C3(C)C)nn1 |  |  |  |  |  |  |  |  |

From ChEMBL document CHEMBL4813917, “2-((1-Phenyl-1H-1,2,3-triazol-4-yl)methyl)-2-azabicyclo[3.2.1]octan-3-one derivatives: Simplification and modification of aconitine scaffold for the discovery of novel anticancer agents” (Eur J Med Chem, 2021)
